Assay results reported in patent US4794174A, “5'deoxy-5'-substituted adenosines” (Southern Research Institute, priority 1987, dated 1988).
Entries after “also recorded” stand apart in the source; their conditions may differ.

Tests used:
[1] = target: T1, AdoMet-DC from MRC5 Cells (Homo sapiens, UniProt P17707); experiment: Effect of compounds on AdoMet-DC from MRC5 cells (crude enzyme preparation); type: biochemical; conditions: AdoMet 30 μM, read-out: ID50 (the source's name)
T1 construct: Effect of Compounds on AdoMet-DC from MRC5 Cells; endogenous in cells; host or cells: MRC5 cells (crude enzyme preparation)
T1 sequence (P17707 68-334 limits assumed): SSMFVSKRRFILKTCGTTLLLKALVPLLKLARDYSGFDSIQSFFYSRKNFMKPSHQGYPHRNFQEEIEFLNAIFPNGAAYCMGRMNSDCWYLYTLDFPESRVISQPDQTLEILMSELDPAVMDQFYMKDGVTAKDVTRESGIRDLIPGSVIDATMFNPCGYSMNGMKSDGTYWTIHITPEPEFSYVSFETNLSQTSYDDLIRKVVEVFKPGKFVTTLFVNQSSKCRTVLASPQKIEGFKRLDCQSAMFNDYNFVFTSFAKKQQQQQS
T1 sequence (P17707 1-67 limits assumed): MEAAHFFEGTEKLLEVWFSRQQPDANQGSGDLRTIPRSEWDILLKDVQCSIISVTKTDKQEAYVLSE
Protocol: Effect of Compounds on AdoMet-DC from MRC5 Cells
mixture contained AdoMet at a concentration of 30 μM. Each inhibitor
was tested at a series of concentrations.

L1210 Cells [2] = experiment: Polyamine levels in L1210 cells treated with 25; type: cell-based; conditions: for Polyamine Content, Putrescine / Polyamine Content, Spermidine / Polyamine Content, Spermine: +100 μM
Source text: (§1) Polyamine Levels in L1210 Cells Treated with --25.

L1210 Cells [3] = experiment: Cell number of L1210 cells treated with 25; type: cell-based; conditions: 96 hrs; +100 μM
Source text: as §1

HCMV = experiment: In vitro antiviral activity against cytomegalovirus: HCMV yields in MRC5 cell monolayer cultures; type: cell-based
Protocol: The Effects of --25 on HCMV Yields in MRC5
*Treatment with --25 began 72 hours prior to virus adsorption. Culture
fluids were replaced with fresh drug and medium 24 hours before virus
infection, immediately following virus infection, and 3 days p.i.

## CN(CCCNC(=S)NN)C[C@H]1O[C@@H](n2cnc3c(N)ncnc32)[C@@H]2OC(C)(C)O[C@@H]21 [Compound 22, 2',3'-O-Methylethylidene-5'-deoxy-5'-[N-methyl-N-[3-(hydrazinethiocarboxamido)propyl]]aminoadenosine]
[1]
  IC50: 1800 nM

## CN(CCCNN)C[C@H]1O[C@@H](n2cnc3c(N)ncnc32)[C@H](O)[C@@H]1O [Compound 25, 5'-Deoxy-5'-[N-methyl-N-(3-hydrazinopropyl)]aminoadenosine sesquisulfate 1.8H2 O.0.1EtOH]
[1]
  IC50: 8 nM
L1210 Cells [2]; 24 hrs
  Polyamine Content, Putrescine: 3.16 umol/10^6 Cells
  Polyamine Content, Spermidine: 0.58 umol/10^6 Cells
  Polyamine Content, Spermine: 0.20 umol/10^6 Cells
L1210 Cells [2]; 48 hrs
  Polyamine Content, Putrescine: 4.91 umol/10^6 Cells
  Polyamine Content, Spermidine: 0.78 umol/10^6 Cells
  Polyamine Content, Spermine: 0.16 umol/10^6 Cells
L1210 Cells [2]; 96 hrs
  Polyamine Content, Putrescine: 5.69 umol/10^6 Cells
  Polyamine Content, Spermidine: 0.65 umol/10^6 Cells
  Polyamine Content, Spermine: 0.19 umol/10^6 Cells
L1210 Cells [2]; in words, Table 4
  effect on spermidine, spermine and putrescine levels: decrease in spermidine and spermine levels; also recorded: increase in putrescine levels
L1210 Cells [3]
  Cell Number × 10^-5 per mL: 17 × 10^-5 per mL
HCMV; 3.2 μM
  CMV Yield (PFU/ml): 5.8 PFU/ml
  CMV Yield (log10 PFU/ml): 5.8 × 10^5 log10 PFU/ml
HCMV; 10 μM
  CMV Yield (PFU/ml): 5.8 PFU/ml
  CMV Yield (log10 PFU/ml): 6.3 × 10^5 log10 PFU/ml
HCMV; 32 μM
  CMV Yield (PFU/ml): 5.8 PFU/ml
  CMV Yield (log10 PFU/ml): 5.8 × 10^5 log10 PFU/ml
HCMV; 100 μM
  CMV Yield (PFU/ml): 5.6 PFU/ml
  CMV Yield (log10 PFU/ml): 4.2 × 10^5 log10 PFU/ml
HCMV; 320 μM
  CMV Yield (PFU/ml): 5.1 PFU/ml
  CMV Yield (log10 PFU/ml): 1.2 × 10^5 log10 PFU/ml
HCMV; 1000 μM
  CMV Yield (PFU/ml): 2.2 PFU/ml
  CMV Yield (log10 PFU/ml): 1.4 × 10^2 log10 PFU/ml
HCMV; Human betaherpesvirus 5, MRC5, 10 μM, read-out: Reduction (%) of CPE at Time of Virus Harvest
  inhibition at 10 µM: 0%
HCMV; Human betaherpesvirus 5, MRC5, 100 μM, read-out: Reduction (%) of CPE at Time of Virus Harvest
  inhibition at 100 µM: 0%
HCMV; Human betaherpesvirus 5, MRC5, 320 μM, read-out: Reduction (%) of CPE at Time of Virus Harvest
  inhibition at 320 µM: 0%

## CN(CCNC(=O)NN)C[C@H]1O[C@@H](n2cnc3c(N)ncnc32)[C@H](O)[C@@H]1O [Compound 16, 5'-Deoxy-5'-[N-methyl-N-[2-(hydrazinecarboxamido)ethyl]aminoadenosine, sesquisulfate dihydrate]
[1]
  IC50: 600 nM
